SMILES strings stand for the structures.

The target in the test is T1, IRAK4 (Homo sapiens, UniProt Q9NWZ3).
T1 construct: endogenous in cells; host or cells: THP-1 cells
T1 sequence (Q9NWZ3 1-460): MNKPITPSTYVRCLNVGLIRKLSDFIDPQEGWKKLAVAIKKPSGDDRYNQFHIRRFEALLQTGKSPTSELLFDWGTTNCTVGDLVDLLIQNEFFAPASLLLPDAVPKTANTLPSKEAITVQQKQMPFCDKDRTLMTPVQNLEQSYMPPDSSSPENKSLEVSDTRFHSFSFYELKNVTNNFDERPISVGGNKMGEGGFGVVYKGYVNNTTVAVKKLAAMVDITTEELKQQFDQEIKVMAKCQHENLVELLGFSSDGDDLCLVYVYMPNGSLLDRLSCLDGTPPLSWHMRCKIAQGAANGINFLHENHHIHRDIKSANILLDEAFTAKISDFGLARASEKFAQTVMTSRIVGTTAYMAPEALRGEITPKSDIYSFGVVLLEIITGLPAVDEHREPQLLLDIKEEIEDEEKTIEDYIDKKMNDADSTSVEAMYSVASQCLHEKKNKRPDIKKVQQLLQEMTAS
Nature of the test: ALE THP1 HTRF (Advanced Lipoxidation End Product THP1 Homogeneous Time Resolved Fluorescence). Conditions: THP1 cells. It counts as cell-based. The procedure, abridged: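 HTRF read-out of IRAK4 protein: anti-IRAK4 d2 and cryptate antibody pair added to BCA-normalized lysates, overnight dark room-temperature incubation. Lysis ran 45 min with shaking at room temperature; buffer, cryptate-only and negative controls included.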
A general note: TR-FRET usually uses a lanthanide donor and a delayed reading to cut background.
The term EC50 denotes the concentration giving half of the maximal effect. A higher EC50 goes with a need for much substance. As to `O=C1CCC(N2C(=O)c3ccc(N4CCN(C(=O)C5CCC(NC(=O)c6cnc(Nc7ccc8ncsc8c7)cc6NC6CCCC6)CC5)CC4)cc3C2=O)C(=O)N1` (stereo not drawn) [P-2], the “ALE THP1 HTRF YMIN” value came to 32.7% and the concentration giving a half-maximal response (EC50) worked out at 97 nM.

As for `C[C@H](C#N)Nc1cc(-n2ncc3cc(C#N)cnc32)ncc1C(=O)N[C@H]1CC[C@H](CCN2[C@@H](C)CN(c3ccc(C4CCC(=O)NC4=O)cc3)C[C@@H]2C)CC1` (stereo partly drawn) [P-149], the “ALE THP1 HTRF YMIN” value is recorded as 7.1% and a half-maximal effect (EC50) was put at 4 nM.

For `N#Cc1cnc2c(cnn2-c2cc(NC3CC3)c(C(=O)NC3CCC(C(=O)N4CCN(c5ccc6c(c5)C(=O)N(C5CCC(=O)NC5=O)C6)CC4)CC3)cn2)c1` (stereo not drawn) [P-22], the “ALE THP1 HTRF YMIN” value was found to be 20.0% and the 50% effective concentration (EC50) is 1110 nM.

`N#Cc1cc2cnn(-c3cc(NC4CC4)c(C(=O)N[C@H]4CC[C@H](CCN5CCN(c6ccc(C7CCC(=O)NC7=O)cc6)CC5)CC4)cn3)c2nc1N` (stereo partly drawn) [P-131]: the “ALE THP1 HTRF YMIN” value was 5.3% and a half-maximal effect (EC50) was put at 3 nM.

Consider `CC1(Nc2cc(-n3ncc4cc(C#N)cnc43)ncc2C(=O)NC2CCC(C(=O)N3CCN(c4ccc5c(c4)C(=O)N(C4CCC(=O)NC4=O)C5)CC3)CC2)CC1` (stereo not drawn) [P-25], for which the “ALE THP1 HTRF YMIN” value came to 20.1% and it took 12 nM to reach a half-maximal effect (EC50).

For `N#Cc1cnc2c(cnn2-c2cc(NC3CC3)c(C(=O)NC3CCC(NCC4CCN(c5ccc(C6CCC(=O)NC6=O)cc5)CC4)CC3)cn2)c1` (stereo not drawn) [P-102], the “ALE THP1 HTRF YMIN” value came to 14.2% and the midpoint of the response, the EC50, lay at 32 nM.

Turning to `CC(C)CNc1cc(-n2ncc3cc(C#N)cnc32)ncc1C(=O)NC1CCC(CCN2CCN(c3ccc(C4CCC(=O)NC4=O)cc3)CC2)CC1` (stereo not drawn) [P-64], the “ALE THP1 HTRF YMIN” value is 10.1% and the half-maximal effective concentration (EC50) is 30 nM.

With `C[C@H](C#N)Nc1cc(-n2ncc3cc(C#N)cnc32)ncc1C(=O)N[C@H]1CC[C@H](CCN2C[C@@H](C)N(c3ccc(C4CCC(=O)NC4=O)cc3)C[C@@H]2C)CC1` (stereo partly drawn) [P-151], the “ALE THP1 HTRF YMIN” value is listed as 6.0% and the response was half-maximal at 8 nM (EC50).

Consider `N#Cc1cnc2c(cnn2-c2cc(NC3CC3)c(C(=O)NC3CCC(CCN4CCN(c5ccc([C@@H]6CCC(=O)NC6=O)cc5)CC4)CC3)cn2)c1` (stereo partly drawn) [P-96], for which the “ALE THP1 HTRF YMIN” value stood at 8.5% and the concentration giving a half-maximal response (EC50) turned out to be 4 nM.

As for `CS(=O)(=O)N1CCC(Nc2cc(-n3ncc4cc(C#N)cnc43)ncc2C(=O)N[C@H]2CC[C@H](CCN3CCN(c4ccc(C5CCC(=O)NC5=O)cc4)CC3)CC2)CC1` (stereo partly drawn) [P-132], the “ALE THP1 HTRF YMIN” value amounted to 7.9% and the EC50 stood at 13 nM.

On to `C[C@H]1CN(c2ccc(C3CCC(=O)NC3=O)cc2)C[C@H](C)N1CCC1CCC(NC(=O)c2cnc(-n3ncc4cc(C#N)cnc43)cc2NC2CCCC2)CC1` (stereo partly drawn) [P-67], for which the “ALE THP1 HTRF YMIN” value was determined as 9.3% and the EC50 is 34 nM.

`N#Cc1cnc2c(cnn2-c2cc(NC3CCCC3)c(C(=O)N[C@H]3CC[C@H](CN4CCC(CCc5ccc(C6CCC(=O)NC6=O)cc5)CC4)CC3)cn2)c1` (stereo partly drawn) [P-43]: the “ALE THP1 HTRF YMIN” value was 14.7% and the concentration giving a half-maximal response (EC50) is 312 nM.

Take `C[C@@H]1CN(c2ccc3c(c2)C(=O)N(C2CCC(=O)NC2=O)C3=O)C[C@H](C)N1CC1CCC(NC(=O)c2cnc(-n3ncc4cc(C#N)cnc43)cc2NC2CCCC2)CC1` (stereo partly drawn) [P-32]: the “ALE THP1 HTRF YMIN” value is 21.0% and the EC50 was 547 nM.

As for `CC([C@H]1CC[C@H](NC(=O)c2cnc(-n3ncc4cc(C#N)cnc43)cc2NC2CCCC2)CC1)N1CCN(c2ccc3c(c2)C(=O)N(C2CCC(=O)NC2=O)C3)CC1` (stereo partly drawn) [P-36], the “ALE THP1 HTRF YMIN” value stood at 10.7% and the EC50 turned out to be 47 nM.

Turning to `C[C@H]1CN(CC[C@H]2CC[C@H](NC(=O)c3cnc(-n4ncc5cc(C#N)cnc54)cc3NC3CC3)CC2)CCN1c1ccc(C2CCC(=O)NC2=O)cc1` (stereo partly drawn) [P-121], the “ALE THP1 HTRF YMIN” value is 11.0% and the 50% effective concentration (EC50) was found to be 13 nM.

As to `CC(C)(C)Nc1cc(-n2ncc3cc(C#N)cnc32)ncc1C(=O)NC1CCC(CCN2CCN(c3ccc(C4CCC(=O)NC4=O)cc3)CC2)CC1` (stereo not drawn) [P-83], the “ALE THP1 HTRF YMIN” value was 8.1% and the 50% effective concentration (EC50) is 47 nM.

Take `CC1(Nc2cc(-n3ncc4cc(C#N)c(N)nc43)ncc2-n2cc([C@H]3CC[C@H](CCN4CCN(c5ccc(C6CCC(=O)NC6=O)cc5)CC4)CC3)nn2)CC1` (stereo partly drawn) [P-157]: the “ALE THP1 HTRF YMIN” value worked out at 10.0% and the 50% effective concentration (EC50) was 2 nM.

As to `N#Cc1cnc2c(cnn2-c2cc(NC3CCCC3)c(C(=O)NC3CCC(CN4CC5(CCN(c6ccc(C7CCC(=O)NC7=O)cc6)CC5)C4)CC3)cn2)c1` (stereo not drawn) [P-39], the “ALE THP1 HTRF YMIN” value is 24.3% and the EC50 stood at 198 nM.

As to `CCC1(Nc2cc(-n3ncc4cc(C#N)cnc43)ncc2C(=O)N[C@H]2CC[C@H](CCN3CCN(c4ccc(C5CCC(=O)NC5=O)cc4)CC3)CC2)CC1` (stereo partly drawn) [P-119], the “ALE THP1 HTRF YMIN” value is given as 8.3% and the midpoint of the response, the EC50, lay at 25 nM.

`N#Cc1cnc2c(cnn2-c2cc(NC3CCCC3)c(-n3cc([C@H]4CC[C@H](CN5CCN(c6ccc7c(c6)C(=O)N(C6CCC(=O)NC6=O)C7)CC5)CC4)nn3)cn2)c1` (stereo partly drawn) [P-55, 1-[4-(Cyclopentylamino)-5-[4-[4-[[4-[2-(2,6-dioxo-3-piperidyl)-3-oxo-isoindolin-5-yl]piperazin-1-yl]methyl]cyclohexyl]triazol-1-yl]-2-pyridyl]pyrazolo[3,4-b]pyridine-5-carbonitrile]: the “ALE THP1 HTRF YMIN” value was 10.3% and it took 15 nM to reach a half-maximal effect (EC50).

On to `C[C@H](C#N)Nc1cc(-n2ncc3cc(C#N)cnc32)ncc1C(=O)N[C@H]1CC[C@H](CCN2CCN(c3ccc(C4CCC(=O)NC4=O)cc3)CC2)CC1` (stereo in doubt) [P-128], for which the “ALE THP1 HTRF YMIN” value is 14.7% and the EC50 amounted to 47 nM.

As to `C[C@H]1CN(c2ccc3c(c2)C(=O)N(C2CCC(=O)NC2=O)C3=O)C[C@H](C)N1CC1CCC(NC(=O)c2cnc(-n3ncc4cc(C#N)cnc43)cc2NC2CCCC2)CC1` (stereo partly drawn) [P-37], the “ALE THP1 HTRF YMIN” value was 20.7% and the 50% effective concentration (EC50) turned out to be 132 nM.

On to `N#Cc1cc2ccn(-c3cc(NC4CC4)c(C(=O)NC4CCC(CCN5CCN(c6ccc(C7CCC(=O)NC7=O)cc6)CC5)CC4)cn3)c2nc1F` (stereo not drawn) [P-100], for which the “ALE THP1 HTRF YMIN” value is given as 28.3% and the concentration for a half-maximal effect (EC50) came to 1100 nM.

Take `C[C@@H]1CN(c2ccc3c(c2)C(=O)N(C2CCC(=O)NC2=O)C3=O)C[C@H](C)N1C(=O)C1CCC(NC(=O)c2cnc(-n3ncc4cc(C#N)cnc43)cc2NC2CCCC2)CC1` (stereo partly drawn) [P-13]: the “ALE THP1 HTRF YMIN” value came to 43.4% and the concentration for a half-maximal effect (EC50) was 82 nM.

Turning to `N#Cc1cnc2c(cnn2-c2cc(NCCC(F)(F)F)c(C(=O)N[C@H]3CC[C@H](CCN4CCN(c5ccc(C6CCC(=O)NC6=O)cc5)CC4)CC3)cn2)c1` (stereo partly drawn) [P-118], the “ALE THP1 HTRF YMIN” value was 9.9% and a half-maximal response (EC50) required 34 nM.

For `N#Cc1cnc2c(cnn2-c2cc(NC3CCCC3)c(C(=O)N[C@H]3CC[C@H](CNC4CCN(c5ccc(C6CCC(=O)NC6=O)cc5)CC4)CC3)cn2)c1` (stereo partly drawn) [P-29], the “ALE THP1 HTRF YMIN” value was found to be 14.1% and the EC50 turned out to be 98 nM.

In the case of `N#Cc1cnc2c(cnn2-c2cc(NC3CCCC3)c(C(=O)NC3CCC(C(=O)N4CCC(c5ccc6c(c5)C(=O)N(C5CCC(=O)NC5=O)C6)CC4)CC3)cn2)c1` (stereo not drawn) [P-14], the “ALE THP1 HTRF YMIN” value stood at 24.0% and the response was half-maximal at 95 nM (EC50).

`C[C@@H]1CN(CC[C@H]2CC[C@H](NC(=O)c3cnc(-n4ncc5cc(C#N)cnc54)cc3NC3CC3)CC2)CCN1c1ccc(C2CCC(=O)NC2=O)cc1` (stereo partly drawn) [P-120]: the “ALE THP1 HTRF YMIN” value is 7.2% and the concentration for a half-maximal effect (EC50) was 15 nM.

As for `N#Cc1cnc2c(cnn2-c2cc(NCCF)c(C(=O)NC3CCC(CCN4CCN(c5ccc(C6CCC(=O)NC6=O)cc5)CC4)CC3)cn2)c1` (stereo not drawn) [P-99], the “ALE THP1 HTRF YMIN” value was found to be 10.7% and a half-maximal effect (EC50) was put at 22 nM.

For `CC(C)Nc1cc(-n2ncc3cc(C#N)cnc32)ncc1C(=O)N[C@H]1CC[C@H](CN2CCN(c3ccc4c(c3)C(=O)N(C3CCC(=O)NC3=O)C4)CC2)CC1` (stereo partly drawn) [P-15], the “ALE THP1 HTRF YMIN” value was determined as 31.8% and the midpoint of the response, the EC50, lay at 26 nM.

For `N#Cc1cnc2c(cnn2-c2cc(NC3CCCC3)c(C(=O)NC3CCC(CCN4CCC(c5ccc(C6CCC(=O)NC6=O)cc5)CC4)CC3)cn2)c1` (stereo not drawn) [P-56], the “ALE THP1 HTRF YMIN” value worked out at 7.7% and the midpoint of the response, the EC50, lay at 426 nM.

As to `N#Cc1cnc2c(cnn2-c2cc(NC3CCCC3)c(-n3cc([C@H]4CC[C@H](CCN5CCN(c6ccc(C7CCC(=O)NC7=O)cc6)CC5)CC4)nn3)cn2)c1` (stereo partly drawn) [P-87, 1-[4-(cyclopentylamino)-5-[4-[4-[2-[4-[4-(2,6-dioxo-3-piperidyl)phenyl]piperazin-1-yl]ethyl]cyclohexyl]triazol-1-yl]-2-pyridyl]pyrazolo[3,4-b]pyridine-5-carbonitrile], the “ALE THP1 HTRF YMIN” value is 10.5% and the EC50 is 26 nM.

Take `COc1cc(N2CCN(CCC3CCC(NC(=O)c4cnc(-n5ncc6cc(C#N)cnc65)cc4NC4CC4)CC3)CC2)ccc1C1CCC(=O)NC1=O` (stereo not drawn) [P-79]: the “ALE THP1 HTRF YMIN” value is 12.2% and the response was half-maximal at 43 nM (EC50).

Regarding `O=C1CCC(N2C(=O)c3ccc(N4CCN(C(=O)C5CCC(NC(=O)c6cnc(Nc7ccc8ncoc8c7)cc6NC6CCCC6)CC5)CC4)cc3C2=O)C(=O)N1` (stereo not drawn) [P-12], the “ALE THP1 HTRF YMIN” value amounted to 47.7%.

As for `O=C1CCC(N2C(=O)c3ccc(N4CCN(C(=O)C5CCC(NC(=O)c6cnc(Nc7ccn8nccc8n7)cc6NC6CCCC6)CC5)CC4)cc3C2=O)C(=O)N1` (stereo not drawn) [P-7], the “ALE THP1 HTRF YMIN” value is recorded as 30.8% and the concentration giving a half-maximal response (EC50) worked out at 37 nM.
